Results on 63 molecules are retold here after a melting point compilation (Tetko et al.; mined from patent text by program, amines drawn as free bases though some values may be those of a salt).

Molecules are shown by their SMILES.

Regarding `CCNC(=S)NC1CCC(=O)c2ccccc21` (stereo not drawn), the melting point (usually the temperature of the solid-liquid transition) fell in the range of 134 to 138 °C.
Then `Cc1oc(-c2ccc(Cl)cc2)cc1C(=O)NCc1ccc2cc(OCC(=O)O)ccc2c1`, with 177 to 181 °C.
Then `COC(=O)Cc1ccc(OCCNC(=O)C2Cc3ccccc3N2S(=O)(=O)c2ccc(-c3cc(C(F)(F)F)ccc3OC)cc2)cc1` (stereo not drawn), with 61 to 64 °C.
In turn, `CCOC1=C(CCCCCCC(=O)O)C(=O)CC1` displayed a melting point of 65 to 66 °C.
As for `CN(C)Cc1ccc2sc(S(N)(=O)=O)cc2c1`, the figure is 172 to 174 °C.
Then `CCOC(=O)CN(Cc1cc(F)ccc1[N+](=O)[O-])C(=O)C(F)(F)F`, with 60 to 63 °C; and `COc1csc2ccc(C(=O)CC(=O)C3CC3)c(OC)c12`, with 77.5 to 80 °C; and `C[C@H]1Cn2c(=O)[nH]c3cccc(c32)CN1`, with 190 °C.
Then `O=C(NCc1ccc(OCCN2CCCC2)cc1)c1ccc2c(c1)OCO2`, with 93.5 to 94.5 °C; and `CN(C(=O)OC(C)(C)C)c1sc(-c2cccnc2)nc1Cl`, with 119 to 122 °C.
In turn, `C/C(=C\c1ccc(C(=O)O)cc1)c1ccc2c(c1)N(C)CCN2C` registered a melting point of 203 to 205 °C.
Then `Clc1ccc(Nc2ccnc(-c3cccc(Cl)n3)n2)cc1`, with 174 to 176 °C.
As for `Cc1cc(Oc2ccc(F)cc2[N+](=O)[O-])n[nH]1`, the figure is 81 to 84 °C.
Molecule `COc1ccc(N(CCN2CCC(C(=O)c3ccc(F)cc3)CC2)C(=O)c2ccc(C#N)cc2)cc1` had a melting point of 136 to 149 °C.
As for `CCOC(=O)/C=C(C)/C=C/C=C(C)/C=C(/F)c1c(C)cc(OC)c(C)c1C`, the figure is 74 to 87 °C; as for `Cc1cccc(C=Cc2ccncc2)n1`, 72 to 73 °C; as for `COc1ccc2c(c1)OC(C(=O)O)C2` (racemic), 108 to 110 °C.
Then `CCCN(CCC)C1Cc2cccc3nc(N)n(c23)C1` (stereo not drawn), with 160 to 170 °C; and `N#Cc1nn(-c2c(Cl)cc(C(F)(F)F)cc2Cl)c(N)c1-c1ccoc1`, with 180 to 181 °C; and `CCOC(=O)/C(CCO[N+](=O)[O-])=C(\c1ccc(Cl)cc1)c1ccc(S(C)(=O)=O)cc1`, with 127 to 128 °C.
As for `CNN(NC)C(=S)Oc1cccnc1C(=O)OC`, the figure is 74 to 75 °C.
For the molecule `Cc1c(C(=O)O)oc2ccc(OCCNC[C@@H](O)c3csc(C(F)(F)F)n3)cc12`, the melting point is 128 to 131 °C.
Turning to `CNC(=O)Nc1ccc(O)c(Cl)c1`, the melting point is 188 to 189 °C.
As for `Cc1[nH]c(=S)[nH]c(=O)c1Cc1cccnc1`, the figure is 328 to 331 °C; as for `ClCc1nnc2n1-c1ccc(Cl)cc1C(c1ccccc1Cl)=NC2`, 195 to 198 °C; as for `N#Cc1cc(-c2ncccc2C(=O)O)ccc1OCCc1ccccc1[N+](=O)[O-]`, 216 to 217 °C.
As for `O=C(N1CC([N+](=O)[O-])([N+](=O)[O-])C1)C(F)(F)F`, the figure is 70 to 71 °C; as for `CC1(O)CCN(C(=O)C(c2ccccc2)n2cnc3[nH]ncc3c2=S)CC1` (stereo not drawn), 140 to 144 °C; as for `CC(C)(C)OC(=O)N1CCC(C(=O)c2nc3ccccc3[nH]2)CC1`, 226 to 228 °C.
Then `COC(=O)C(=[N+]=[N-])c1ccc(S(C)(=O)=O)c(Cl)c1`, with 103 to 106 °C; and `CC(=CN(C)C)C(=O)c1cccc(Cl)c1`, with 206 to 208 °C.
For `O=C(NCc1ccc(Cl)cc1)c1nnc2ccc(I)cc2c1O`, the melting point fell in the range of 307 to 308 °C.
`COc1cc2ncnc(Nc3cccc(Cl)c3F)c2cc1OC1CCN(C(=O)OC(C)(C)C)CC1` yielded a melting point of 192 to 194 °C.
Turning to `Cc1c(NC(=O)c2ccc(-c3ccc(F)cc3)nc2)ccc2cc(CN3CCCC3)cnc12`, the melting point was in the range of 207 to 209 °C.
Then `Oc1cc(C(F)CBr)c2oc(-c3ccc(O)c(F)c3)nc2c1` (stereo not drawn), with 185 to 186 °C; and `Nc1cccc(C(=O)c2ccc(-c3ccc(C(=O)c4cccc(N)c4)cc3)cc2)c1`, with 217 to 218 °C.
Then `COc1cc(OC)nc(-n2c(SC)nc3ccccc32)n1`, with 135 to 137 °C.
`O=C(NC=CC1OC1CCCNC(=O)c1ccc(OC(F)(F)F)cc1)c1ccc(OC(F)(F)F)cc1` (stereo not drawn): the melting point is 121 to 123 °C.
On to `O=C1OC(=O)c2c3ccccc3cc3cccc1c23`, for which the melting point was 289 to 290 °C.
As for `CCOC(=O)c1ccc(-c2ccc(-c3ccc(O)cc3)c(-c3ccc4c(c3)C(C)(C)CCC4(C)C)c2)cc1`, the figure is 177 to 179 °C.
As for `O=C(NCCCCCCCCCCCO[N+](=O)[O-])c1ccc(N2CCNCC2)nc1`, the figure is 78 to 80 °C.
`COc1ccc(-c2ccc(OC(CCC3=CCCCC3)C(=O)O)cc2)cc1` (stereo not drawn) came in with a melting point of 152 to 154 °C.
Then `O=c1c2ccccc2ccc2ccc(SC(F)(F)F)cc12`, with 87 to 88 °C.
As for `CNC(=O)CN1CCc2cc(Nc3ncc(Cl)c(Nc4ccc(N5CCOCC5)cc4OC)n3)c(OC)cc2CC1`, the figure is 113 to 130 °C; as for `Cc1ccc(S(=O)(=O)N2[C@@H](c3nn[nH]n3)CC[C@H]2c2ccc(F)cc2)cc1` (racemic), 150 °C; as for `CN(Cc1cc2c(=O)c(C(=O)NCc3ccc(Cl)cc3)cn(C)c2s1)C[C@@H](O)c1ccc([N+](=O)[O-])cc1`, 181 to 183 °C.
As for `CC1(C)Cc2cccc(Oc3c(Cl)cc([N+](=O)[O-])cc3Cl)c2O1`, the figure is 105 to 110 °C.
On to `CC12CCC(O)CC1=CCC1C2CCC2(C)C1CCC2n1ccnc1` (stereo not drawn), for which the melting point was 255 to 258 °C.
Then `COC(=O)c1ccc(Cn2ncc3ccc([N+](=O)[O-])cc32)cc1`, with 171 to 172 °C.
Molecule `COc1ccc(CN2CCC(c3cn(Cc4ccc(Cl)s4)c4cnccc34)CC2)cc1C(=O)O` registered a melting point of 125 to 127 °C.
Then `O=C(O)CCc1cc2nc(C(F)(F)F)ccc2n1S(=O)(=O)c1cccc2cccnc12`, with 216 to 217 °C; and `Cc1c(O)ccc(Cl)c1N`, with 143 to 144 °C; and `CC(C)(C)C(C)(O)C(Cn1cncn1)Oc1ccc(Cl)cc1` (stereo not drawn), with 150 °C.
Then `CC(C)(C)OC(=O)NCCc1ccc(N)cc1`, with 71 to 73 °C.
Then `COc1nc(OC)nc(N(C)C(=O)Oc2ccccc2)n1`, with 90 °C; and `COc1c(Cl)ccc(-c2nc(Cl)c3c(ncn3C)n2)c1F`, with 184 to 186 °C; and `CCC12CCC3C4CCC(=O)C=C4C=CC3C1CCC2OC(C)=O` (stereo not drawn), with 163 to 177 °C.
As for `CCc1ccc(Nc2nc3cc([N+](=O)[O-])ccc3o2)cc1`, the melting point lay in the range of 172 to 173 °C.
Molecule `CC(C)c1nc(-c2ccccc2)c(F)c(-c2ccc(F)cc2)c1C=O` came in with a melting point of 136 to 137 °C.
On to `Cc1c(C=CC=O)c2c(c(C)c1OCc1ccccc1)CC(C)(C)O2`, for which the melting point was in the range of 108 to 109 °C.
`Cc1ccc(-n2c(=O)nc(N(C)C)n(C)c2=O)cc1C` displayed a melting point of 189 to 191 °C.
Then `Cc1oc(-c2ccccc2)nc1CC=Cc1ccc(CC2SC(=O)NC2=O)cc1` (stereo not drawn), with 55 to 57 °C; and `O=c1[nH]c(-c2ccccc2)c(-c2ccncc2)o1`, with 300 °C.
